Laboratory results taken from ChEMBL document CHEMBL3808297, “The synthesis and synergistic antifungal effects of chalcones against drug resistant Candida albicans” (2016).
Converted amounts (≈) assume the structure as drawn.

Experiments:
Type in all cases: functional
Candida albicans [1] = experiment: Antifungal activity against fluconazole-resistant Candida albicans clinical isolate 103 by microbroth dilution method in presence of 8 ug/ml fluconazole
Candida albicans [2] = experiment: Antifungal activity against fluconazole-resistant Candida albicans clinical isolate 103 assessed as fractional inhibitory concentration index by microbroth dilution method in presence of 8 ug/ml fluconazole
Candida albicans [3] = experiment: Antifungal activity against fluconazole-resistant Candida albicans clinical isolate 103 by microbroth dilution method

Row | SMILES | MIC80 (Candida albicans [1]) [µg/mL] | fractional inhibitory concentration index (FICI) (Candida albicans [2]) | MIC80 (Candida albicans [3]) [µg/mL]
1 | O=C(/C=C/c1cccs1)c1ccccc1O | > 64 | >1.06 | > 64
2 | COc1cc(/C=C/C(=O)c2ccccc2O)ccc1O | > 64 | >1.06 | > 64
3 | O=C(/C=C/c1ccc(F)cc1)c1ccccc1O | 32 | 0.315 | > 64
4 | COc1ccc(/C=C/C(=O)c2ccccc2F)cc1 | 64 | 0.506 | > 64
5 | COc1ccc(/C=C/C(=O)c2ccc(O)cc2)cc1OC | > 64 | >1.06 | > 64
6 | O=C(/C=C/c1ccc(C(F)(F)F)cc1)c1ccccc1O | 64 | 0.506 | > 64
7 | O=C(/C=C/c1ccc2c(c1)OCO2)c1ccccc1O | 32 | 0.315 | > 64
8 | COc1ccc(C(=O)/C=C/c2ccccc2)c(O)c1 | 1 |  | > 64
9 | COc1cccc(O)c1C(=O)/C=C/c1ccccc1 | 16 | 0.188 | > 64
10 | COc1cccc(O)c1C(=O)/C=C/c1ccc2c(c1)OCO2 | 4 | 0.094 | > 64
11 | COc1cccc(O)c1C(=O)/C=C/c1ccco1 | 4 | 0.094 | > 64
12 | O=C(/C=C/c1ccc(Br)cc1)c1c(O)cccc1O | 16 | 0.188 | > 64
13 | COc1cccc(O)c1C(=O)/C=C/c1cccnc1 | 8 | 0.125 | > 64
14 | O=C(/C=C/c1ccc2c(c1)OCO2)c1ccccc1Cl | 32 | 0.315 | > 64
15 | CN(C)c1ccc(/C=C/C(=O)c2ccccc2F)cc1 | 8 | 0.125 | > 64
16 | COc1ccc(/C=C/C(=O)c2ccccc2N)cc1OC | 32 | 0.315 | > 64
17 | O=C(/C=C/c1ccccc1)c1cc(Br)c(O)c(Br)c1O | 4 | 0.125 | 64 (≈ 161 µM)
18 | Nc1ccccc1C(=O)/C=C/c1ccco1 | > 64 | >1.06 | > 64
19 | O=C(/C=C/c1ccc(CO)o1)c1ccccc1O | 8 | 0.125 | > 64
20 | COc1cccc(O)c1C(=O)/C=C/c1cccs1 | 4 | 0.094 | > 64
21 | COc1ccc(/C=C/C(=O)c2ccccc2Cl)cc1OC | > 64 | >1.06 | > 64
22 | COc1cccc(O)c1C(=O)/C=C/c1ccc(CO)o1 | 8 | 0.125 | > 64
23 | O=C(/C=C/c1ccco1)c1ccccc1O | 64 | 0.506 | > 64
24 | O=C(/C=C/c1ccccc1)c1ccc(O)cc1 [4'-HYDROXYCHALCONE] | > 64 | >1.06 | > 64
25 | O=c1cc(-c2ccccc2)oc2cc(O)c(O)c(O)c12 [BAICALEIN] | 4 | 0.188 | 32 (≈ 118 µM)
